Test results published in patent publication US20220324835A1 (Nurix Therapeutics, Inc., priority 2018, published 2022).

How the values were obtained:
Cbl-b [1] = biological target: T1, Cbl-b (Homo sapiens, UniProt Q13191); assay: Cbl-b inhibition assay (Cbl-b activity assay, FRET, Biological Example 1; 100 mM NaCl, 60 nM Src kinase); assay type: biochemical; conditions: upper bound stated in text lists; read-out: IC50 values in the Cbl-b inhibition assay of Biological Example 1
Summary of the method: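 Here, the E2 UbcH5B, irreversibly linked to Bodipy-fluorescein ubiquitin, binds Cbl-b once Src kinase phosphorylates it; Cbl-b carries an N-terminal biotinylated Avi-tag captured by streptavidin-terbium. An absent FRET signal indicates inhibition.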

Cbl-b [2] = biological target: T1, Cbl-b; assay: Cbl-b activity assay (Cbl-b inhibition assay), TR-FRET of Cbl-b interaction with UbcH5B-Ub; assay type: biochemical; conditions: assay buffer with 100 mM NaCl, 60 nM Src kinase; read-out: Cbl-b activity IC50
Summary of the method: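 TR-FRET readout of Cbl-b binding to Bodipy-fluorescein N-terminally labeled Ub conjugated to UbcH5B C85K, measured with compound present. After compound incubation, 60 nM Src kinase with 1 mM ATP and 5 mM MgCl2 (final) was added for 1.5 h, then a further 1 h incubation; asterisked values used 50 mM NaCl buffer and 30 nM Src.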

T-cell [3] = assay: CD25 cell surface staining on T-cells stimulated with anti-CD3 antibody alone (Biological Example 2); assay type: cell-based; conditions: primary human total T-cells, baseline = anti-CD3/anti-CD28 stimulated cells without inhibitor, read-out: CD25 staining, Anti-CD3 stimulation, fold change over baseline; for fold induction at 1 µM: 1 μM compound; for fold induction at 8 µM: 8 μM compound
T-cell [4] = assay: IL-2 secretion from T-cells co-stimulated with anti-CD3 and anti-CD28 antibody (Biological Example 2); assay type: cell-based, human; conditions: Homo sapiens, T-cell, primary human total T-cells, baseline = anti-CD3/anti-CD28 stimulated cells without inhibitor, read-out: IL-2 secretion, Anti-CD3/Anti-CD28 stimulation, fold change over baseline; for fold induction at 0.3 µM: 0.3 μM compound; for fold induction at 1 µM: 1 μM compound; for fold induction at 4 µM: 4 μM compound
Summary of the method: (§1)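 No assay protocol given; T-cells stimulated with anti-CD3 alone or anti-CD3 plus anti-CD28, with or without Cbl-b inhibitor. Activation read as IL-2 secretion or CD25 surface staining, expressed as fold over baseline from uninhibited cells […].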

T-cell [5] = assay: CD25 cell surface staining on T-cells co-stimulated with anti-CD3 and anti-CD28 antibody (Biological Example 2); assay type: cell-based, human; conditions: Homo sapiens, T-cell, primary human total T-cells, baseline = anti-CD3/anti-CD28 stimulated cells without inhibitor, read-out: CD25 staining, Anti-CD3/Anti-CD28 stimulation, fold change over baseline; for fold induction at 0.3 µM: 0.3 μM compound; for fold induction at 1 µM: 1 μM compound; for fold induction at 4 µM: 4 μM compound
Summary of the method: as §1

T-cell [6] = assay: IL-2 secretion from T-cells stimulated with anti-CD3 antibody alone (Biological Example 2); assay type: cell-based; conditions: primary human total T-cells, read-out: IL-2 secretion, Anti-CD3 stimulation, fold change over baseline; for fold induction at 1 µM: 1 μM compound; for fold induction at 8 µM: 8 μM compound

T1 sequence (Q13191 36-427): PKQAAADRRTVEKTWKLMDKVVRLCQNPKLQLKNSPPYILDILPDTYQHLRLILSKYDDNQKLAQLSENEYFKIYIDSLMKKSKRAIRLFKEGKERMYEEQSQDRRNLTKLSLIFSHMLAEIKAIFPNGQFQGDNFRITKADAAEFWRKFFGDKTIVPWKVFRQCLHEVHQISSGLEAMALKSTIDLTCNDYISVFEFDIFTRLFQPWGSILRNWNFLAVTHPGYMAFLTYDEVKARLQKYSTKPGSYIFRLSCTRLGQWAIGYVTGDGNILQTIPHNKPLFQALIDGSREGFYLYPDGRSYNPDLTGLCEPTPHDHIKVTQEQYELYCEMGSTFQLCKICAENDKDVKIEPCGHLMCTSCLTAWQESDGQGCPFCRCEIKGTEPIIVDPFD

Compound | IC50 (Cbl-b [1]) [µM] | IC50 (Cbl-b [2]) [µM] | fold induction at 1 µM (T-cell [3]) | fold induction at 0.3 µM (T-cell [4]) | fold induction at 1 µM (T-cell [4]) | fold induction at 0.3 µM (T-cell [5]) | fold induction at 1 µM (T-cell [5]) | fold induction at 1 µM (T-cell [6]) | fold induction at 8 µM (T-cell [3]) | fold induction at 4 µM (T-cell [4]) | fold induction at 4 µM (T-cell [5]) | fold induction at 8 µM (T-cell [6])
Cc1cc(C(=O)Nc2cccc([C@@]3(Cc4nncn4C)CCOC3)c2)nc(C2CC2)n1 (single isomer, unassigned) [Compound 534b] | ≤ 0.1 | < 0.1 | 0.801 to 1 | 2.51 to 5 | 2.51 to 5 | 1.01 to 1.3 | 1.01 to 1.3 | 0.101 to 0.15 |  |  |  | 
CC(c1cc(C(=O)Nc2cccc(C3(Cc4nncn4C)COC3)c2)nc(C2CC2)n1)N1CC(F)C1 (centres unmarked) [Compound 538, 2-cyclopropyl-6-(1-(3-fluoroazetidin-1-yl)ethyl)-N-(3-(3-((4-methyl-4H-1,2,4-triazol-3-yl)methyl)oxetan-3-yl)phenyl)pyrimidine-4-carboxamide] | ≤ 0.1 | < 0.1 | 0.801 to 1 | 1.01 to 2.5 | 2.51 to 5 | 1.01 to 1.3 | 1.31 to 1.5 | 0.101 to 0.15 |  |  |  | 
Cn1cnnc1CC1(c2cccc(N3Cc4c(cc(CN5CC(C)(C#N)C5)cc4C(F)(F)F)C3=O)c2)COC1 [Compound 425, 3-methyl-1-((2-(3-(3-((4-methyl-4H-1,2,4-triazol-3-yl)methyl)oxetan-3-yl)phenyl)-3-oxo-7-(trifluoromethyl)isoindolin-5-yl)methyl)azetidine-3-carbonitrile] | ≤ 0.1 | < 0.1 | 0.601 to 0.8 | 2.51 to 5 | > 7.5 | 1.01 to 1.3 | 1.31 to 1.5 | 0.151 to 0.2 | < 0.6 | > 7.5 | 1.51 to 1.75 | 0.051 to 0.1
C[C@@H](c1cc2c(c(C(F)(F)F)c1)CN(c1cccc([C@@](C)(F)C(F)(F)c3nncn3C)c1)C2=O)N1CC[C@H](F)C1 [Compound 460, 6-((S)-1-((S)-3-fluoropyrrolidin-1-yl)ethyl)-2-(3-((R)-1,1,2-trifluoro-1-(4-methyl-4H-1,2,4-triazol-3-yl)propan-2-yl)phenyl)-4-(trifluoromethyl)isoindolin-1-one] | ≤ 0.1 | < 0.1 | > 1 | > 7.5 | > 7.5 | 1.31 to 1.5 | 1.51 to 1.75 | > 0.201 | > 1 | > 7.5 | 1.51 to 1.75 | > 0.201
Cn1cnnc1CC1(c2cccc(NC(=O)c3csc(C4CC4)n3)c2)COC1 [Compound 494, 2-cyclopropyl-N-(3-{3-[(4-methyl-1,2,4-triazol-3-yl)methyl]oxetan-3-yl}phenyl)-1,3-thiazole-4-carboxamide] | ≤ 0.3 | 0.1 to 0.3 | 0.601 to 0.8 | 1.01 to 2.5 | 1.01 to 2.5 | 1.01 to 1.3 | 1.01 to 1.3 | 0.051 to 0.1 |  |  |  | 
C[C@H](c1cc2c(c(C(F)(F)F)c1)CN(c1cccc(C3(Cc4nncn4C)COC3)c1)C2=O)N1CCC(F)(F)C1 [Compound 419, (R)-6-(1-(3,3-difluoropyrrolidin-1-yl)ethyl)-2-(3-(3-((4-methyl-4H-1,2,4-triazol-3-yl)methyl)oxetan-3-yl)phenyl)-4-(trifluoromethyl)isoindolin-1-one] | ≤ 0.1 | < 0.1 | > 1 | 2.51 to 5 | > 7.5 | 1.01 to 1.3 | 1.31 to 1.5 | 0.151 to 0.2 | > 1 | > 7.5 | 1.31 to 1.5 | > 0.201
Cn1cnnc1CC1(c2cccc(N3Cc4c(cc(OC5CC5)cc4C(F)(F)F)C3=O)c2)COC1 [Compound 513, 6-cyclopropoxy-2-(3-{3-[(4-methyl-1,2,4-triazol-3-yl)methyl]oxetan-3-yl}-phenyl)-4-(trifluoromethyl)-3H-isoindol-1-one] | ≤ 0.1 | < 0.1 | > 1 | 1.01 to 2.5 | 2.51 to 5 | 1.01 to 1.3 | 1.01 to 1.3 | 0.151 to 0.2 |  |  |  | 
Cn1cnnc1CC1(c2cccc(N3Cc4c(cc(C(F)(F)C(=O)O)cc4C(F)(F)F)C3=O)c2)COC1 [Example 544, 2,2-difluoro-2-(2-(3-(3-((4-methyl-4H-1,2,4-triazol-3-yl)methyl)oxetan-3-yl)phenyl)-3-oxo-7-(trifluoromethyl)isoindolin-5-yl)acetic acid] | ≤ 1 | 0.301 to 1 | 0.601 to 0.8 | 1.01 to 2.5 | 1.01 to 2.5 | 1.01 to 1.3 | 1.01 to 1.3 | < 0.05 |  |  |  | 
Cn1cnnc1CC1(c2cccc(N3Cc4c(cc(CN5CCCC56COC6)cc4C(F)(F)F)C3=O)c2)COC1 [Compound 433, 2-(3-{3-[(4-methyl-4H-1,2,4-triazol-3-yl)methyl]oxetan-3-yl}phenyl)-6-({2-oxa-5-azaspiro[3,4]octan-5-yl}methyl)-4-(trifluoromethyl)-2,3-dihydro-1H-isoindol-1-one] | ≤ 0.1 | < 0.1 | 0.801 to 1 | 1.01 to 2.5 | 5 to 7.5 | 1.01 to 1.3 | 1.31 to 1.5 | 0.151 to 0.2 |  |  |  | 
CN1CC2CCC(C1)N2c1cc2c(c(C(F)(F)F)c1)CN(c1cccc([C@@](C)(F)C(F)(F)c3nncn3C)c1)C2=O [Compound 445, 6-(3-Methyl-3,8-diazabicyclo[3.2.1]octan-8-yl)-2-(3-((R)-1,1,2-trifluoro-1-(4-methyl-4H-1,2,4-triazol-3-yl)propan-2-yl)phenyl)-4-(trifluoromethyl)isoindolin-1-one] | ≤ 0.1 | < 0.1 | > 1 | 5 to 7.5 | > 7.5 | 1.31 to 1.5 | 1.51 to 1.75 | > 0.201 | > 1 | > 7.5 | 1.51 to 1.75 | > 0.201
Cn1cnnc1CC1(c2cccc(N3Cc4c(cc(CN5CCOCC5)cc4C(F)(F)F)C3=O)c2)COC1 [Compound 431, 2-(3-{3-[(4-methyl-4H-1,2,4-triazol-3-yl)methyl]oxetan-3-yl}phenyl)-6-[(morpholin-4-yl)methyl]-4-(trifluoromethyl)-2,3-dihydro-1H-isoindol-1-one] | ≤ 0.1 | < 0.1 | > 1 | 2.51 to 5 | > 7.5 | 1.31 to 1.5 | 1.31 to 1.5 | > 0.201 |  |  |  | 
